Test results taken from ChEMBL document CHEMBL4699397, “Development of potent CPP6-gemcitabine conjugates against human prostate cancer cell line (PC-3)” (RSC Med Chem, 2020).
*1 amine or outer side, *2 acyl side, *3 side chain or, on linkers, in order; H or OH if unused. Where a SMILES comes first, the peptide text is derived from it. The star is where a group is joined. X1 = O=c1nc(N*)ccn1[C@@H]1O[C@H](CO)[C@@H](O)C1(F)F; Suc = O=C(CCC(=O)[*:2])[*:1]

How the values were obtained:
[1] = test system: BXPC-3; assay: Cytotoxicity against human BXPC-3 cells assessed as inhibition of cell growth measured after 72 hrs by SRB assay; assay type: functional, cell-based; settings: BXPC-3, 72 h
[2] = test system: MCF7; assay: Cytotoxicity against human MCF7 cells assessed as inhibition of cell growth measured after 72 hrs by MTT assay; assay type: functional, cell-based; settings: MCF7, 72 h
[3] = test system: PC-3; assay: Cytotoxicity against human PC-3 cells assessed as inhibition of cell growth measured after 72 hrs by MTT assay; assay type: functional, cell-based; settings: PC-3, 72 h
[4] = Half life of the compound; assay type: physicochemical

half-life [4]	Compound	IC50 [1]	IC50 [2]	IC50 [3]
–	CC(C)C[C@H](NC(=O)[C@@H](NC(=O)[C@@H]1CCCN1C(=O)[C@@H](NC(=O)[C@H](Cc1c[nH]c2ccccc12)NC(=O)CCC(=O)Nc1ccn([C@@H]2O[C@H](CO)[C@@H](O)C2(F)F)c(=O)n1)C(C)C)[C@@H](C)O)C(=O)N[C@@H](CCCCN)C(N)=O ({X1-Suc}-WVPTLK-NH2)	0.2 µM	0.004 µM	0.014 µM
–	CC/C(=C(\c1ccccc1)c1ccc(OCCN(C)C)cc1)c1ccccc1 [TAMOXIFEN]	–	–	> 1 µM
–	CN(C)C(=N)NC(=N)N [METFORMIN]	–	0.0099 µM	0.189 µM
–	CSCC[C@H](NC(=O)[C@@H](NC(=O)[C@@H]1CCCN1C(=O)[C@H](CC(C)C)NC(=O)[C@H](CCCCN)NC(=O)[C@@H](N)Cc1c[nH]c2ccccc12)C(C)C)C(N)=O	> 1 µM	0.223 µM	> 1 µM
8 min	Nc1ccn([C@@H]2O[C@H](CO)[C@@H](O)C2(F)F)c(=O)n1 [GEMCITABINE]	0.13 µM	0.0014 µM	0.074 µM
–	H-KLPVMW-NH2	> 1 µM	> 1 µM	> 1 µM
–	H-WVPTLK-NH2	> 1 µM	> 1 µM	> 1 µM
–	CSCC[C@H](NC(=O)[C@@H](NC(=O)[C@@H]1CCCN1C(=O)[C@H](CC(C)C)NC(=O)[C@H](CCCCN)NC(=O)CCC(=O)Nc1ccn([C@@H]2O[C@H](CO)[C@@H](O)C2(F)F)c(=O)n1)C(C)C)C(=O)N[C@@H](Cc1c[nH]c2ccccc12)C(N)=O ({X1-Suc}-KLPVMW-NH2)	0.17 µM	0.0069 µM	> 1 µM
–	CSCC[C@H](NC(=O)[C@@H](NC(=O)[C@@H]1CCCN1C(=O)[C@H](CC(C)C)NC(=O)[C@H](CCCCN)NC(=O)[C@H](Cc1c[nH]c2ccccc12)NC(=O)CCC(=O)Nc1ccn([C@@H]2O[C@H](CO)[C@@H](O)C2(F)F)c(=O)n1)C(C)C)C(N)=O ({X1-Suc}-WKLPVM-NH2)	0.18 µM	0.0051 µM	0.015 µM
